In brackets after ≈: the same amount, converted by molar mass.
Key:
[1] = tested on: Norovirus; assay: Norovirus test; format: cell-based
[2] = tested on: Influenza A H1N1; assay: antiviral test Influenza A H1N1; format: cell-based; conditions: Influenza A virus
[3] = tested on: RSV; assay: antiviral test RSV; format: cell-based; conditions: human respiratory syncytial virus
[4] = tested on: a virus; conditions: virus of Chan et al., 2013, p. 612; cited from earlier work
[5] = tested on: pandemic flu H1/415, A/Hong Kong/415742/2009, A(H1N1)pdm09; conditions: To et al. (2016); cited from earlier work
[6] = tested on: seasonal influenza A(H3N2) virus; conditions: To et al. (2016); cited from earlier work
[7] = tested on: avian-origin influenza A (H7N9); conditions: cited from earlier work

## COc1c(C)c2c(c(O)c1C/C=C(\C)CCC(=O)O)C(=O)OC2 [mycophenolic acid, 6-(4-hydroxy-6-methoxy-7-methyl-3-oxo-1,3-dihydroisobenzofuran-5-yl)-4-methyl-hex-4-enoic acid]
[1]
  EC50: 0.151 µg/mL (≈ 0.471 µM)
[2]
  EC50: < 0.1 µg/mL
[3]
  EC50: < 0.1 µg/mL
[4]
  EC50: 0.17 µg/mL (≈ 0.531 µM)
[5]
  effectiveness against virus: effective
[6]
  effectiveness against virus: effective
[7]
  effectiveness against virus: effective

Reference: US20240325424A1, “Pharmaceutical Compositions And Methods For Treating Neoplasia” (priority 2021, published 2024)
